Read-outs that look alike come from different tables or passages of the source. Where no end group is shown, it is not given here.
Assays:
[1] = tested on: rat liver microsomes (membrane phospholipid peroxidation); experiment: Antiperoxidative activity on rat liver microsomes, cumene hydroperoxide induced peroxidation (MDA formation); format: biochemical; conditions: 0.5 mM cumene hydroperoxyde, Table 3; for MDA: control 12.8
Description: b) 20 mM Hepes-Tris buffer pH=7.4, 0.5 mM cumene hydroperoxide in the presence or in the absence of the compounds to be tested. […] Subsequently the incubation is carried out for 15' at 90° C. in order to allow the development of the coloured adduct.
(§1) A common oxidation product, malonyldialdehyde (MDA), to the two oxidant systems described in (a) and in (b), is measured.
The tested compounds are solubilized in the culture medium up to the desired concentrations (see tables 1-3).
As peroxidant agent 0.5 mM cumene hydroperoxyde is used. As oxidation index the formation of malonyldialdehyde (MDA) is measured (nmoles/mg protein).

[2] = tested on: rat liver microsomes (membrane phospholipid peroxidation); experiment: Antiperoxidative activity on rat liver microsomes, NADPH/Fe+2/ADP induced peroxidation (MDA formation); format: biochemical
Description: Before the final resuspension mitochondria ape washed with 0.125M KCl containing 15 mM Hepes/10 mM tris at pH=7.4. Rat liver microsomes are prepared as described by Ernster and Nordenbrand (Ernster, Nordenbrand K. Methods Enzymol. 1967, 10:574-80). […]
b) 20 mM Hepes-Tris buffer pH=7.4, 0.5 mM cumene hydroperoxide in the presence or in the absence of the compounds to be tested. The trials after incubation are interrupted with 1 ml 35% TCA which 30 mg BHT and 1 ml 1% TBA (thiobarbituric acid) have been added to. Subsequently the incubation is carried out for 15' at 90° C. in order to allow the development of the coloured adduct.
as §1
The formed MDA is evaluated by spectrophotometry at 532 nm and calculated by using a molar extinction coefficient of 156.000 (Buege J. A. and Aust S. D., Methods Enzymol., 52, 302-310, 1978).
The tested compounds are solubilized in the culture medium up to the desired concentrations (see tables 1-3). […]
The antiperoxidase activity is measured as % of inhibition of malonyldialdehyde formation.

[3] = tested on: granular cerebellar cells; experiment: Protection against 2 mM glutamate cytotoxicity in immature granular cerebellar cell cultures
C6 glioma cells = experiment: Protection against 5 mM glutamate cytotoxicity in glioma C6 cultures
[4] = tested on: rat cerebellar granular cells; experiment: Protection against glutamate neurotoxicity in rat cerebellar granular cell cultures; format: cell-based; conditions: glutamate alone, 50 μM; Table 4; control 100; 1440 min
Description: Primary cerebellar granular cell cultures are prepared from 8 days old Sprague-Dawly rats. Neurons are grown on 35 mm plates for 7-8 days. […] Glial cells proliferation is prevented by cytosine arabinose-furanoside.
Cells are washed in Locke solution free from Mg^2+ then replated in the conditionned culture medium.
The solution is diluted serially up to 10, 20 and 50 μM. The compounds at the desired concentrations are added to the cells at 37 ° C.; after 15' 50 μM glutamate free from Mg^2+ is added For 15 minutes at 22 ° C.
The cells are then washed 3 times with Locke solution, then added to the original culture medium and maintained at 37 ° C. in 5 % CO2 for 24 hours.
The cellular survival is measured by using a fluorescence microscope.

Solubility = format: physicochemical; conditions: for solubility: organic solvent or mixture, read-out: solubility in org. solv.
mast cells = experiment: In vivo antidegranulating activity in rat mast cells (substance P induced); design: species or system Sprague Dawley rats
Description: 1. In vivo antidegranulating activity in rat mast cells.
The pharmacological treatment is preceded (20 min. before) by the degranulating stimulus induced by P substance (10^-6 M) injected in the auricular pinna. After 20 minutes from the degranulating stimulus, the animals are sacrificed. Their tissues are then taken (auricular pavilion) for the morphological aspect analysis of the mast cells residing in the connective tissues after fixation and coloration with toluidine blue.
The inhibition level of the mast cells degranulation in the animal tissue treated with the tested compounds in comparison with the animals treated only with the degranulating agent is considered as the parameter of the biological activity.
*the inhibition percentage is calculated considering that the effect of
the substance P is maximum (100% of mast cells degranulation).

[5] = 10 μM, NADPH/Fe+2/ATP, Table 1-A
[6] = 10 μM, NADPH/Fe+2/ATP, Table 1-A, control 42.5
[7] = 20 μM, NADPH/Fe+2/ATP, Table 1-A
[8] = 20 μM, NADPH/Fe+2/ATP, Table 1-A, control 42.5
[9] = 40 μM, preincubation time 0 minutes, ADP/NADPH/Fe, Table 2
[10] = 40 μM, preincubation time 15 minutes, ADP/NADPH/Fe, Table 2
[11] = 40 μM, preincubation time 30 minutes, ADP/NADPH/Fe, Table 2
[12] = 40 μM, preincubation time 45 minutes, ADP/NADPH/Fe, Table 2
[13] = 40 μM, preincubation time 60 minutes, ADP/NADPH/Fe, Table 2
[14] = Mus musculus, 24 h, read-out: % Cellular survival
[15] = Rattus norvegicus, C6 glioma, 24 h, read-out: % Cell survival

Compound: CC(=O)Oc1c(C)c(C)c2c(c1C)CCC(C)(CCC[C@H](C)CCC[C@H](C)CCCC(C)C)O2 (some centres unmarked) [Vit. E acetate, reference compound]
- peroxidation inhibition ([1]; 20 μM): 0%
- MDA ([1]; 20 μM): 14.29 nmoles/mg prot.
- peroxidation inhibition ([1]; 50 μM): 0%
- MDA ([1]; 50 μM): 11.57 nmoles/mg prot.
- peroxidation inhibition [2, 5]: 0%
- MDA [2, 6]: 51.08 nmoles/mg prot.
- peroxidation inhibition [2, 7]: 0%
- MDA [2, 8]: 49.34 nmoles/mg prot.
- peroxidation inhibition [2, 9]: 1.90%
- peroxidation inhibition [2, 10]: 18.20%
- peroxidation inhibition [2, 11]: 28.95%
- peroxidation inhibition [2, 12]: 35.80%
- peroxidation inhibition [2, 13]: 40.35%
- inhibition of the peroxidation induced by NADPH/Fe+2/ADP (in words) ([2]; in vitro, 10 to 50 μM dose/effect relationship for the test compound): inactive in the in-vitro systems

Compound: Cc1c(C)c2c(c(C)c1O)CC(CC(=O)O)O2 (centres unmarked) [5-hydroxy-4,6,7-trimethyl-2,3-dihydrobenzofuran-2-acetic acid, reference compound]
- peroxidation inhibition ([1]; 20 μM): 28%
- MDA ([1]; 20 μM): 9.25 nmoles/mg prot.
- peroxidation inhibition ([1]; 50 μM): 42%
- MDA ([1]; 50 μM): 7.5 nmoles/mg prot.
- peroxidation inhibition [2, 5]: 0%
- MDA [2, 6]: 44.19 nmoles/mg prot.
- peroxidation inhibition [2, 7]: 12%
- MDA [2, 8]: 37.3 nmoles/mg prot.

Compound: N[C@@H](CCC(=O)O)C(=O)O [Glutamate, reference compound]
- cell death ([3]; 2 mM glutamate for 24 hours, immature granular cerebellar cells): 60+70%
- % Cellular survival ([3]; glutamate alone, 2 mM, 24 hours, Table 6): 30%
- cellular degeneration (C6 glioma cells; 5 mM glutamate for 24 hours): 90%
- % Cell survival (C6 glioma cells; glutamate alone, 5 mM, 24 hours, Table 5): 7%
- cell survival [4]: 3%

Compound: Cc1c(C)c2c(c(C)c1O)CC(CC(=O)NCCCO)O2 (centres unmarked) [Example 5, N-[2-(2,3-dihydro-5-hydroxy-4,6,7-trimethylbenzofuran)-acetyl]-propanolamine]
- solubility (Solubility; in ethanol, DMSO, chloroform): > 10000 µg/mL
- water solubility (Solubility): slightly soluble
- peroxidation inhibition ([2]; 10 μM, Table 1-B, second series): 24.0 ± 1.0%
- MDA ([2]; 10 μM, Table 1-B, second series (control 42.50 ± 2.4)): 32.32 ± 0.4 nmoles/mg/protein
- peroxidation inhibition ([2]; 20 μM, Table 1-B, second series): 58.0 ± 7.0%
- MDA ([2]; 20 μM, Table 1-B, second series (control 42.50 ± 2.4)): 17.87 ± 2.9 nmoles/mg/protein
- peroxidation inhibition ([2]; 40 μM, Table 1-B, second series): 94.0 ± 3.0%
- MDA ([2]; 40 μM, Table 1-B, second series (control 42.50 ± 2.4)): 2.57 ± 1.3 nmoles/mg/protein
- peroxidation inhibition ([2]; 60 μM, Table 1-B, second series): 95.0 ± 3.0%
- MDA ([2]; 60 μM, Table 1-B, second series (control 42.50 ± 2.4)): 2.10 ± 1.2 nmoles/mg/protein
- peroxidation inhibition ([2]; 80 μM, Table 1-B, second series): 94.0 ± 3.0%
- MDA ([2]; 80 μM, Table 1-B, second series (control 42.50 ± 2.4)): 2.54 ± 1.3 nmoles/mg/protein
- viability at 1 µM [3, 14]: 52%
- viability at 10 µM [3, 14]: 83%
- viability at 30 µM [3, 14]: 86%
- viability at 1 µM (C6 glioma cells; [15]): 8%
- viability at 3 µM (C6 glioma cells; [15]): 66%
- viability at 10 µM (C6 glioma cells; [15]): 91%

Compound: substance P: degranulating stimulus injected in the auricular pinna (RPKPQQFFGLM; ends and bridges not checked; UniProt P20366 58-68, looked up) [reference compound]
- mast cells degranulation (mast cells; induced by substance P, of the numbered mast cells): 85-95%

Compound: CC(=O)OCCNC(=O)C1(C)CCc2c(C)c(OC(C)=O)c(C)c(C)c2O1 (centres unmarked) [Example 3, 6-acetoxy-2,5,7,8-tetramethyl-chroman-2-(2-acetoxyethyl)-carboxyamide]
- solubility (Solubility; in ethanol): > 10000 µg/mL
- water solubility (Solubility): slightly soluble
- peroxidation inhibition ([2]; 2.5 μM, Table 1-B, third series): 23.1%
- MDA ([2]; 2.5 μM, Table 1-B, third series (control 37.4)): 28.8 nmoles/mg/protein
- peroxidation inhibition ([2]; 5 μM, Table 1-B, third series): 41.6%
- MDA ([2]; 5 μM, Table 1-B, third series (control 37.4)): 21.8 nmoles/mg/protein
- peroxidation inhibition ([2]; 10 μM, Table 1-B, third series): 53.8%
- MDA ([2]; 10 μM, Table 1-B, third series (control 37.4)): 17.2 nmoles/mg/protein
- peroxidation inhibition ([2]; 20 μM, Table 1-B, third series): 62.1%
- MDA ([2]; 20 μM, Table 1-B, third series (control 37.4)): 14.1 nmoles/mg/protein
- viability at 1 µM [3, 14]: 49%
- viability at 10 µM [3, 14]: 60%
- viability at 30 µM [3, 14]: 77%
- viability at 1 µM (C6 glioma cells; [15]): 17%
- viability at 3 µM (C6 glioma cells; [15]): 40%
- viability at 10 µM (C6 glioma cells; [15]): 82%

Compound: Cc1c(C)c2c(c(C)c1O)CCC(C)(C(=O)NCCCO)O2 (centres unmarked) [Example 4, N-(6-hydroxy-2,5,7,8-tetramethylchroman-2-carboxyl)-propanolamine]
- solubility (Solubility; in ethanol, DMSO, chloroform): > 10000 µg/mL
- water solubility (Solubility): slightly soluble
- peroxidation inhibition ([2]; 10 μM, Table 1-B, first series): 37%
- MDA ([2]; 10 μM, Table 1-B, first series (control 46.27)): 28.96 nmoles/mg/protein
- peroxidation inhibition ([2]; 20 μM, Table 1-B, first series): 95.5%
- MDA ([2]; 20 μM, Table 1-B, first series (control 46.27)): 1.61 nmoles/mg/protein
- peroxidation inhibition ([2]; 40 μM, Table 1-B, first series): 97.7%
- MDA ([2]; 40 μM, Table 1-B, first series (control 46.27)): 1.07 nmoles/mg/protein
- peroxidation inhibition ([2]; 60 μM, Table 1-B, first series): 97.7%
- MDA ([2]; 60 μM, Table 1-B, first series (control 46.27)): 1.04 nmoles/mg/protein
- peroxidation inhibition ([2]; 80 μM, Table 1-B, first series): 97.7%
- MDA ([2]; 80 μM, Table 1-B, first series (control 46.27)): 1.07 nmoles/mg/protein
- peroxidation inhibition ([2]; 100 μM, Table 1-B, first series): 99.3%
- MDA ([2]; 100 μM, Table 1-B, first series (control 46.27)): 0.30 nmoles/mg/protein
- viability at 1 µM [3, 14]: 39%
- viability at 3 µM [3, 14]: 60%
- viability at 10 µM [3, 14]: 77%
- viability at 1 µM (C6 glioma cells; [15]): 10%
- viability at 3 µM (C6 glioma cells; [15]): 94%
- viability at 10 µM (C6 glioma cells; [15]): 90%

Compound: Cc1c(C)c2c(c(C)c1OC(=O)CCC(=O)NCCO)CCC(C)(CCCC(C)CCCC(C)CCCC(C)C)O2 [Example 2, D-α-tocopherol acid succinate 2-hydroxyethylamide]
- solubility (Solubility; in ethanol and chloroform): > 10000 µg/mL
- water solubility (Solubility): slightly soluble
- peroxidation inhibition [2, 9]: 1.40%
- peroxidation inhibition [2, 10]: 17.30%
- peroxidation inhibition [2, 11]: 29.50%
- peroxidation inhibition [2, 12]: 37.90%
- peroxidation inhibition [2, 13]: 40.90%
- viability at 10 µM (C6 glioma cells; [15]): 10%
- viability at 30 µM (C6 glioma cells; [15]): 80%
- inhibition % (mast cells degranulation induced by substance P) (mast cells; s.c. 20 mg/kg, substance P 10^-6 M in auricular pinna, substance P effect taken as 100% degranulation): 38.5%

Compound: Cc1c(C)c2c(c(C)c1O)CCC(C)(C(=O)O)O2 (centres unmarked) [6-hydroxy-2,5,7,8-tetramethylchroman-2-carboxylic acid, reference compound]
- viability at 10 µM [3, 14]: 43%
- viability at 50 µM [3, 14]: 54%
- viability at 100 µM [3, 14]: 84%
- viability at 10 µM (C6 glioma cells; [15]): 7%
- viability at 30 µM (C6 glioma cells; [15]): 37%
- viability at 100 µM (C6 glioma cells; [15]): 94%

Reference: patent US5480645A, “Hydroxyamines N-acyl derivatives having scavenger activity and useful in acute and chronic pathologies associated with peroxidation and inflammation phenomena” (LifeGroup S.p.A., priority 1992, dated 1996)
